The values below are quoted from earlier work in PubChem BioAssay AID1259409 (Chemical Carcinogenesis Research Information System (CCRIS), 2018).

The structures appear in SMILES notation.

This data set has as its system rodent chemically induced tumor inhibition, incidence and multiplicity. The data set can be described thus: CCRIS tumor inhibitor studies. The conditions noted are these: Dose [Inhibitor]: 0, Species: RAT.

Regarding `CC(=O)Oc1ccccc1C(=O)O`, the “tumour outcome (control, treated, inhibition, significance)” value is, setting by setting: (Carcinogen: AZOXYMETHANE, 25843-45-2, 250 PPM IN DIET FOR 34 WK BEGINNING 1 WK POST LAST CARCINOGEN DOSE (STUDY DURATION: 49 WK), Route [Inhibitor]: ORAL, Strain/Sex: F344/MALE, Target Tissue: Type of Lesion: COLON: ADENOCARCINOMA, Dose [Carcinogen]: 12 MG/KG BW IN 0.9% SALINE TWICE, Promoter: CHOLIC ACID, 81-25-4) 26%, 19%, 27%, not significant; (Carcinogen: AZOXYMETHANE, 25843-45-2, 250 PPM IN DIET FOR 34 WK BEGINNING 1 WK POST LAST CARCINOGEN DOSE (STUDY DURATION: 49 WK), Route [Inhibitor]: ORAL, Strain/Sex: F344/MALE, Target Tissue: Type of Lesion: COLON: ADENOMA, Dose [Carcinogen]: 12 MG/KG BW IN 0.9% SALINE TWICE, Promoter: CHOLIC ACID, 81-25-4) 81%, 77%, 5%, not significant; (Carcinogen: AZOXYMETHANE, 25843-45-2, 250 PPM IN DIET FOR 34 WK BEGINNING 1 WK POST LAST CARCINOGEN DOSE (STUDY DURATION: 49 WK), Route [Inhibitor]: ORAL, Strain/Sex: F344/MALE, Target Tissue: Type of Lesion: SMALL INTESTINE: ADENOCARCINOMA, Dose [Carcinogen]: 12 MG/KG BW IN 0.9% SALINE TWICE, Promoter: CHOLIC ACID, 81-25-4) 23%, 23%, 0%, not significant; (Carcinogen: AZOXYMETHANE, 25843-45-2, 250 PPM IN DIET FOR 34 WK BEGINNING 1 WK POST LAST CARCINOGEN DOSE (STUDY DURATION: 49 WK), Route [Inhibitor]: ORAL, Strain/Sex: F344/MALE, Target Tissue: Type of Lesion: SMALL INTESTINE: ADENOMA, Dose [Carcinogen]: 12 MG/KG BW IN 0.9% SALINE TWICE, Promoter: CHOLIC ACID, 81-25-4) 17%, 23%, -35%, not significant; (Carcinogen: AZOXYMETHANE, 25843-45-2, 400 PPM IN DIET BEGINNING 2 WK PRIOR TO CARCINOGEN TREATMENT AND CONTINUING FOR 52 WK (STUDY DURATION: 54 WK), Route [Inhibitor]: ORAL, Strain/Sex: F344/MALE, Target Tissue: Type of Lesion: COLON: ADENOCARCINOMA, Dose [Carcinogen]: 15 MG/KG BW 1/WK FOR 2 WK, Promoter: NONE USED) 78%, 47%, 40%, p<0.01; (Carcinogen: DIMETHYLHYDRAZINE HYDROCHLORIDE, 306-37-6, 5 MG/KG 1/D 5D/WK BY GAVAGE AND SAME DOSE IN DIET 2 D/WK FOR 18 WK (STUDY DURATION: 18 WK), Route [Inhibitor]: GAVAGE, ORAL, Strain/Sex: WISTAR/MALE, Target Tissue: Type of Lesion: COLON: TUMOR, Dose [Carcinogen]: 30 MG/KG/WK FOR 18 WK, Promoter: NONE USED) 100%, 100%, 0%, not significant. The “tumour outcome (control, treated, inhibition, significance)” value is on record as 100%, 50%, 50%, p<0.03 (Carcinogen: DIMETHYLHYDRAZINE HYDROCHLORIDE, 306-37-6, 30 MG/KG 1/D 5 D/WK BY GAVAGE AND THE SAME DOSE IN DIET 2 D/WK FOR 18 WK (STUDY DURATION: 18 WK), Route [Inhibitor]: GAVAGE, ORAL, Strain/Sex: WISTAR/MALE, Target Tissue: Type of Lesion: COLON: TUMOR, Dose [Carcinogen]: 30 MG/KG/WK FOR 18 WK, Promoter: NONE USED); 100%, 25%, 75%, p<0.01 (Carcinogen: DIMETHYLHYDRAZINE HYDROCHLORIDE, 306-37-6, 60 MG/KG 1/D 5 D/WK BY GAVAGE AND THE SAME DOSE IN DIET 2 D/WK FOR 18 WK (STUDY DURATION: 18 WK), Route [Inhibitor]: GAVAGE, ORAL, Strain/Sex: WISTAR/MALE, Target Tissue: Type of Lesion: COLON: TUMOR, Dose [Carcinogen]: 30 MG/KG/WK FOR 18 WK, Promoter: NONE USED); 8/29 (28%), 1/29 (3%), 89%, p<0.05 (Carcinogen: N-BUTYL-(4-HYDROXYBUTYL)NITROSAMINE, 3817-11-6, 1 G/KG IN DIET FROM WK 1 THROUGH WK 20 OF STUDY, Route [Inhibitor]: ORAL, Strain/Sex: WISTAR/MALE, Target Tissue: Type of Lesion: BLADDER: TUMOR, Dose [Carcinogen]: 0.05% IN DRINKING WATER FROM WK 2 THROUGH WK 10 OF STUDY (STUDY DURATION: 32 WK), Promoter: NONE USED).
